EPA's ToxRefDB 2

Tests used:
rat [1] = conditions: Prenatal developmental toxicity study, sprague dawley, Oral, Gavage/Intubation, dose end: 16 GD
rabbit [2] = conditions: Prenatal developmental toxicity study, new zealand white, Dermal, Topical, dose end: 18 GD
rat [3] = conditions: Prenatal developmental toxicity study, wistar, Oral, Gavage/Intubation, dose end: 17 GD
guinea-pig = conditions: Subchronic dermal toxicity, hartley, Topical, dose end: 13 week, group: systemic
rat [4] = conditions: Prenatal developmental toxicity study, sprague dawley, Oral, Gavage/Intubation, dose end: 16 GD; remark: listed apart in the source
rabbit [5] = conditions: Sub-acute dermal toxicity, new zealand white, Topical, dose end: 21 day, group: systemic
rat [6] = conditions: Prenatal developmental toxicity study, sprague dawley, Oral, Gavage/Intubation, dose end: 15 GD
dog [7] = conditions: Chronic toxicity, beagle, Oral, Capsule, dose end: 52 week, group: systemic
rat [8] = conditions: Subchronic oral toxicity in rodents, sprague dawley, Feed, dose end: 90 day, group: systemic, systemic / organ weight / liver / absolute + systemic / organ weight / liver / relative to body weight + systemic / clinical chemistry / …
rat [9] = conditions: Prenatal developmental toxicity study, sprague dawley, Oral, Gavage/Intubation, dose end: 15 GD; remark: listed apart in the source
dog [10] = conditions: Subchronic oral toxicity in nonrodent, beagle, Capsule, dose end: 13 week, group: systemic, systemic / organ weight / thyroid gland / absolute + systemic / organ weight / thyroid gland / relative to body weight
mouse [11] = conditions: Combined chronic toxicity/carcinogenicity; other; Oral; Feed; dose end: 99 week; group: systemic; systemic / hematology / erythrocyte (rbc) count differential / erythrocyte (rbc) + systemic / hematology / hematocrit (hct) / hematocrit (…
rat [12] = conditions: Combined chronic toxicity/carcinogenicity, fischer, Oral, Feed, dose end: 24 month, group: systemic
rabbit [13] = conditions: Prenatal developmental toxicity study, new zealand white, Oral, Gavage/Intubation, dose end: 19 GD
mouse [14] = conditions: Carcinogenicity; cd1; Oral; Feed; dose end: 105 week; group: systemic; systemic / pathology microscopic / liver / adenocarcinoma + systemic / pathology microscopic / liver / adenoma + systemic / pathology …
mouse [15] = conditions: Subchronic oral toxicity in rodents, b6c3f1, Feed, dose end: 13 week
mouse [16] = conditions: Fertility (Segment I); cd1; Oral; Gavage/Intubation; dose end: 1 generation; group: parental; systemic / pathology gross / sperm measure / sperm morphology
rat [17] = conditions: Subchronic oral toxicity in rodents, fischer, Feed, dose end: 13 week
[18] = group: developmental, developmental / developmental malformation / aortic arch / [other] + developmental / developmental malformation / aortic arch / malformation…
[19] = group: developmental, developmental / developmental malformation / bone / ossification sites + developmental / developmental malformation / bone / supernumerary…
[20] = group: maternal, reproductive / reproductive performance / resorptions / resorptions + reproductive / offspring survival early / litter size / litter size
[21] = group: developmental, developmental / developmental malformation / bone / delayed ossification + developmental / developmental malformation / bone / knobby + …
[22] = group: maternal, reproductive / reproductive performance / resorptions / resorptions + systemic / hematology / erythrocyte (rbc) count differential / …
[23] = group: developmental, systemic / in life observation / body weight / offspring (pup) weight gain + developmental / developmental malformation / aortic arch / …
[24] = group: maternal, reproductive / offspring survival early / live fetuses / live fetuses + reproductive / offspring survival early / litter size / litter size…
[25] = systemic / clinical chemistry / lactic acid dehydrogenase (ldh) / lactic acid dehydrogenase (ldh) + systemic / hematology / mean corpuscular…
[26] = systemic / pathology microscopic / liver / fatty change + systemic / pathology microscopic / liver / necrosis + systemic / urinalysis / …
[27] = group: developmental, developmental / developmental malformation / bone / misaligned + developmental / developmental malformation / bone / ossification sites + …
[28] = group: maternal, reproductive / reproductive performance / resorptions / resorptions + systemic / in life observation / body weight / body weight + systemic…
[29] = systemic / clinical chemistry / glucose / glucose
[30] = systemic / in life observation / clinical signs / desquamation + systemic / in life observation / clinical signs / erythema + systemic / in …
[31] = group: developmental, developmental / developmental malformation / bone / short supernumerary + developmental / developmental malformation / eye / anophthalmia + …
[32] = group: maternal, systemic / in life observation / body weight / body weight gain + systemic / in life observation / food consumption / food consumption
[33] = group: maternal, systemic / in life observation / body weight / body weight gain + systemic / in life observation / food consumption / food consumption + …
[34] = systemic / organ weight / liver / absolute + systemic / organ weight / liver / relative to body weight
[35] = systemic / organ weight / liver / absolute + systemic / organ weight / liver / relative to body weight + systemic / clinical chemistry / …
[36] = group: developmental, developmental / developmental malformation / bone / incomplete ossification + systemic / in life observation / body weight / fetal weight
[37] = group: maternal, systemic / in life observation / body weight / body weight + systemic / in life observation / body weight / body weight gain + reproductive…
[38] = systemic / organ weight / liver / absolute
[39] = systemic / organ weight / liver / absolute + systemic / pathology microscopic / liver / adenocarcinoma + systemic / pathology microscopic / …
[40] = group: developmental, developmental / developmental malformation / limb / hyperflexion + systemic / in life observation / body weight / fetal weight + …
[41] = group: maternal, reproductive / reproductive performance / estrous cycle / length
[42] = group: systemic, systemic / in life observation / body weight / body weight + systemic / in life observation / clinical signs / drooping eyelids (ptosis) + …
[43] = group: systemic, systemic / clinical chemistry / alkaline phosphatase (alp/alk) / alkaline phosphatase (alp/alk) + systemic / clinical chemistry / bile acids…

COCCOCCO [Diethylene glycol monomethyl ether] gave an LOAEL (rat [1]; [18]) of over 2160 mg/kg/day, an NOAEL (rat [1]; [18]) of at least 2160 mg/kg/day and an LEL (rat [1]; [19]) of 720 mg/kg/day. For the same compound, the NEL (rat [1]; [19]) was under 720 mg/kg/day, the NEL (rat [1]; group: maternal, reproductive / reproductive performance / resorptions / resorptions) was 720 mg/kg/day and the LEL (rat [1]; [20]) was 2160 mg/kg/day. For the same compound, the LOAEL (rat [1]; [20]) was over 2160 mg/kg/day, the NOAEL (rat [1]; [20]) was at least 2160 mg/kg/day and the LEL (rabbit [2]; [21]) was 250 mg/kg/day. For the same compound, the LOAEL (rabbit [2]; [21]) was over 750 mg/kg/day, the NEL (rabbit [2]; [21]) was 50 mg/kg/day and the NOAEL (rabbit [2]; [21]) was at least 750 mg/kg/day. For the same compound, the LEL (rabbit [2]; [22]) was 750 mg/kg/day, the LOAEL (rabbit [2]; [22]) was over 750 mg/kg/day and the NEL (rabbit [2]; [22]) was 250 mg/kg/day. It also gave an NOAEL (rabbit [2]; [22]) of at least 750 mg/kg/day, an NEL (rat [3]; group: developmental, systemic / in life observation / body weight / offspring (pup) weight gain) of 200 mg/kg/day and an LOAEL (rat [3]; [23]) of over 1800 mg/kg/day. The NOAEL (rat [3]; [23]) was at least 1800 mg/kg/day, the LEL (rat [3]; group: developmental, systemic / in life observation / body weight / offspring (pup) weight gain + developmental / developmental malformation / bone / …) was 600 mg/kg/day and the LEL (rat [3]; group: maternal, reproductive / offspring survival early / live fetuses / live fetuses) was 600 mg/kg/day. It also gave an NEL (rat [3]; group: maternal, reproductive / offspring survival early / live fetuses / live fetuses + reproductive / offspring survival early / litter size / litter size) of 200 mg/kg/day, an LOAEL (rat [3]; [24]) of over 1800 mg/kg/day and an NOAEL (rat [3]; [24]) of at least 1800 mg/kg/day. The LOAEL (guinea-pig; [25]) was over 1000 mg/kg/day, the NOAEL (guinea-pig; [25]) was at least 1000 mg/kg/day and the LEL (guinea-pig; [26]) was 40 mg/kg/day. The NEL (guinea-pig; [26]) was under 40 mg/kg/day, the LOAEL (rat [4]; [27]) was over 5180 mg/kg/day and the NEL (rat [4]; [27]) was 1000 mg/kg/day. It also gave an NOAEL (rat [4]; [27]) of at least 5180 mg/kg/day, an LEL (rat [4]; group: developmental, developmental / developmental malformation / bone / ossification sites) of 1500 mg/kg/day and an LOAEL (rat [4]; [28]) of over 5180 mg/kg/day. The NEL (rat [4]; [28]) was 2240 mg/kg/day, the NOAEL (rat [4]; [28]) was at least 5180 mg/kg/day and the LEL (rat [4]; group: maternal, systemic / in life observation / body weight / body weight + systemic / in life observation / food consumption / food consumption + …) was 3340 mg/kg/day.

O=S(=O)(C(Cl)(Cl)Cl)C(Cl)(Cl)Cl [Bis(trichloromethyl)sulfone] gave an LEL (rabbit [5]; [29]) of 0.8 mg/kg/day, an NEL (rabbit [5]; [29]) of under 0.8 mg/kg/day and an LOAEL (rabbit [5]; [30]) of 5 mg/kg/day. For the same compound, the NOAEL (rabbit [5]; [30]) was 2 mg/kg/day, the LEL (rat [6]; [31]) was 50 mg/kg/day and the LOAEL (rat [6]; [31]) was 50 mg/kg/day. It also gave an NEL (rat [6]; [31]) of 10 mg/kg/day, an NOAEL (rat [6]; [31]) of 10 mg/kg/day and an LEL (rat [6]; [32]) of 10 mg/kg/day. For the same compound, the LOAEL (rat [6]; [32]) was 10 mg/kg/day, the NEL (rat [6]; [33]) was 2 mg/kg/day and the NOAEL (rat [6]; [33]) was 2 mg/kg/day.

With CC(C)Oc1cc(-n2nc(C(C)(C)C)oc2=O)c(Cl)cc1Cl [Oxadiazon] the LEL (dog [7]; [34]) was 20 mg/kg/day, the LOAEL (dog [7]; [34]) was 20 mg/kg/day and the NEL (dog [7]; [35]) was 5 mg/kg/day. For the same compound, the NOAEL (dog [7]; [35]) was 5 mg/kg/day, the LEL (rat [8]) was 100 mg/kg/day and the LOAEL (rat [8]) was 100 mg/kg/day. The NEL (rat [8]) was 25 mg/kg/day, the NOAEL (rat [8]) was 25 mg/kg/day and the LEL (rat [9]; [36]) was 40 mg/kg/day. It also gave an LOAEL (rat [9]; [36]) of 40 mg/kg/day, an NEL (rat [9]; [36]) of 12 mg/kg/day and an NOAEL (rat [9]; [36]) of 12 mg/kg/day. For the same compound, the LOAEL (rat [9]; group: maternal, systemic / in life observation / body weight / body weight + systemic / in life observation / body weight / body weight gain) was 40 mg/kg/day, the LEL (rat [9]; [37]) was 40 mg/kg/day and the NEL (rat [9]; [37]) was 12 mg/kg/day. It also gave an NOAEL (rat [9]; [37]) of 12 mg/kg/day, an LEL (dog [10]) of 25 mg/kg/day and an LOAEL (dog [10]) of 25 mg/kg/day. It also gave an NEL (dog [10]) of under 25 mg/kg/day, an NOAEL (dog [10]) of under 25 mg/kg/day and an LEL (mouse [11]) of 0.315 mg/kg/day. For the same compound, the LOAEL (mouse [11]) was 10.6 mg/kg/day, the NEL (mouse [11]) was under 0.315 mg/kg/day and the NOAEL (mouse [11]) was 1.09 mg/kg/day. It also gave an LEL (rat [12]; [38]) of 4.8 mg/kg/day, an LOAEL (rat [12]; [38]) of 4.8 mg/kg/day and an NEL (rat [12]; [39]) of 0.5 mg/kg/day. The NOAEL (rat [12]; [39]) was 0.5 mg/kg/day, the LEL (rabbit [13]; [40]) was 180 mg/kg/day and the LOAEL (rabbit [13]; [40]) was 180 mg/kg/day. The NEL (rabbit [13]; [40]) was 60 mg/kg/day, the NOAEL (rabbit [13]; [40]) was 60 mg/kg/day and the LEL (rabbit [13]; [32]) was 60 mg/kg/day. It also gave an LOAEL (rabbit [13]; [32]) of 60 mg/kg/day, an NEL (rabbit [13]; [33]) of 20 mg/kg/day and an NOAEL (rabbit [13]; [33]) of 20 mg/kg/day. The LEL (mouse [14]) was 12 mg/kg/day, the LOAEL (mouse [14]) was 12 mg/kg/day and the NEL (mouse [14]) was under 12 mg/kg/day. The NOAEL (mouse [14]) was under 12 mg/kg/day.

NC(=Nc1ccccc1)Nc1ccccc1 [1,3-Diphenylguanidine] was tested, and the LEL (mouse [15]; [41]) was 577 mg/kg/day, the LOAEL (mouse [15]; [41]) was over 577 mg/kg/day and the NEL (mouse [15]; [41]) was 285 mg/kg/day. It also gave an NOAEL (mouse [15]; [41]) of at least 577 mg/kg/day, an LOAEL (mouse [15]; group: systemic, systemic / in life observation / body weight / body weight + systemic / in life observation / clinical signs / drooping eyelids (ptosis)) of 231 mg/kg/day and an NEL (mouse [15]; [42]) of 38 mg/kg/day. The NOAEL (mouse [15]; [42]) was 114 mg/kg/day, the LEL (mouse [15]; group: systemic, systemic / organ weight / liver / relative to body weight) was 75 mg/kg/day and the LEL (mouse [16]) was 16 mg/kg/day. The LOAEL (mouse [16]) was over 16 mg/kg/day, the NEL (mouse [16]) was 4 mg/kg/day and the NOAEL (mouse [16]) was at least 16 mg/kg/day. For the same compound, the LEL (rat [17]; [41]) was 49 mg/kg/day, the LOAEL (rat [17]; [41]) was over 184 mg/kg/day and the NEL (rat [17]; [41]) was 32 mg/kg/day. For the same compound, the NOAEL (rat [17]; [41]) was at least 184 mg/kg/day, the LEL (rat [17]; [43]) was 17 mg/kg/day and the LOAEL (rat [17]; [43]) was 95 mg/kg/day. It also gave an NEL (rat [17]; [43]) of under 17 mg/kg/day and an NOAEL (rat [17]; [43]) of 49 mg/kg/day.
